In PubChem BioAssay (NCI):
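Following 48 hours of exposure in 96-well plates, responses at five concentrations were used to interpolate endpoints linearly. The concentration for 50% growth inhibition is given as GI50. TGI is the concentration that stops growth completely.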

Experiments:
Experiment in all cases: NCI tumour cell line growth inhibition, 48 h
SK-MEL-2 melanoma = system: SK-MEL-2 melanoma
OVCAR-8 ovarian = system: OVCAR-8 ovarian
HS 578T breast = system: HS 578T breast
SN12C renal = system: SN12C renal
MDA-MB-231 breast = system: MDA-MB-231 breast
OVCAR-5 ovarian = system: OVCAR-5 ovarian
KM12 colon = system: KM12 colon
BT-549 breast = system: BT-549 breast
UO-31 renal = system: UO-31 renal
NCI/ADR-RES ovarian = system: NCI/ADR-RES ovarian
A498 renal = system: A498 renal
DU-145 prostate = system: DU-145 prostate
SW-620 colon = system: SW-620 colon
SK-MEL-5 melanoma = system: SK-MEL-5 melanoma
SK-OV-3 ovarian = system: SK-OV-3 ovarian
SF-539 CNS = system: SF-539 CNS
OVCAR-4 ovarian = system: OVCAR-4 ovarian
HL-60(TB) leukemia = system: HL-60(TB) leukemia
NCI-H23 lung = system: NCI-H23 lung
UACC-62 melanoma = system: UACC-62 melanoma
A549 NSCLC = system: A549 NSCLC
MDA-MB-435 = system: MDA-MB-435
SNB-19 CNS = system: SNB-19 CNS
TK-10 renal = system: TK-10 renal
PC-3 prostate = system: PC-3 prostate
NCI-H460 lung = system: NCI-H460 lung
SR leukemia = system: SR leukemia
RPMI-8226 leukemia = system: RPMI-8226 leukemia
LOX IMVI melanoma = system: LOX IMVI melanoma
T-47D breast = system: T-47D breast
MALME-3M melanoma = system: MALME-3M melanoma
K-562 leukemia = system: K-562 leukemia
IGROV1 ovarian = system: IGROV1 ovarian
OVCAR-3 ovarian = system: OVCAR-3 ovarian
SK-MEL-28 melanoma = system: SK-MEL-28 melanoma
NCI-H522 lung = system: NCI-H522 lung
HCC-2998 colon = system: HCC-2998 colon
SF-295 CNS = system: SF-295 CNS
EKVX NSCLC = system: EKVX NSCLC
CAKI-1 renal = system: CAKI-1 renal
MCF7 breast = system: MCF7 breast
CCRF-CEM leukemia = system: CCRF-CEM leukemia
RXF 393 renal = system: RXF 393 renal
U251 CNS = system: U251 CNS
M14 melanoma = system: M14 melanoma
HOP-92 NSCLC = system: HOP-92 NSCLC
COLO 205 colon = system: COLO 205 colon
HOP-62 NSCLC = system: HOP-62 NSCLC
NCI-H226 lung = system: NCI-H226 lung
786-0 renal = system: 786-0 renal
UACC-257 melanoma = system: UACC-257 melanoma
SF-268 CNS = system: SF-268 CNS
SNB-75 CNS = system: SNB-75 CNS
ACHN renal = system: ACHN renal
HCT-116 colon = system: HCT-116 colon
HCT-15 colon = system: HCT-15 colon
MOLT-4 leukemia = system: MOLT-4 leukemia
HT29 colon = system: HT29 colon

## O=[N+]([O-])/C=C/c1ccc2ccccc2c1
SK-MEL-2 melanoma
  TGI: > 61.6 µM
OVCAR-8 ovarian
  TGI: > 21.2 µM
HS 578T breast
  TGI: > 61.8 µM
SN12C renal
  TGI: 22.7 µM
MDA-MB-231 breast
  TGI: 13.4 µM
OVCAR-5 ovarian
  TGI: > 30.1 µM
KM12 colon
  TGI: 3.09 µM
BT-549 breast
  TGI: 7.8 µM
UO-31 renal
  TGI: 35.1 µM
NCI/ADR-RES ovarian
  TGI: > 28 µM
A498 renal
  TGI: 25.7 µM
DU-145 prostate
  TGI: > 35.9 µM
SW-620 colon
  TGI: 3.99 µM
SK-MEL-5 melanoma
  TGI: 13.3 µM
SK-OV-3 ovarian
  TGI: 9.22 µM
SF-539 CNS
  TGI: > 100 µM
OVCAR-4 ovarian
  TGI: 26 µM
HL-60(TB) leukemia
  TGI: 7.8 µM
NCI-H23 lung
  TGI: > 23.5 µM
UACC-62 melanoma
  TGI: 32.8 µM
A549 NSCLC
  TGI: > 58.5 µM
MDA-MB-435
  TGI: 4.58 µM
SNB-19 CNS
  TGI: 5.13 µM
TK-10 renal
  TGI: 25.8 µM
PC-3 prostate
  TGI: 14 µM
NCI-H460 lung
  TGI: > 23.5 µM
SR leukemia
  TGI: > 100 µM
RPMI-8226 leukemia
  TGI: > 100 µM
LOX IMVI melanoma
  TGI: 7.81 µM
T-47D breast
  TGI: 2.13 µM
MALME-3M melanoma
  TGI: 33.9 µM
K-562 leukemia
  TGI: 9.42 µM
IGROV1 ovarian
  TGI: > 21.8 µM
OVCAR-3 ovarian
  TGI: > 100 µM
SK-MEL-28 melanoma
  TGI: 4.65 µM
NCI-H522 lung
  TGI: 33.1 µM
HCC-2998 colon
  TGI: 0.678 µM
SF-295 CNS
  TGI: 19.4 µM
EKVX NSCLC
  TGI: > 55 µM
CAKI-1 renal
  TGI: 25.7 µM
MCF7 breast
  TGI: > 100 µM
CCRF-CEM leukemia
  TGI: > 100 µM
RXF 393 renal
  TGI: 5.72 µM
U251 CNS
  TGI: 3.08 µM
M14 melanoma
  TGI: > 23.7 µM
HOP-92 NSCLC
  TGI: 21.1 µM
COLO 205 colon
  TGI: 5.97 µM
HOP-62 NSCLC
  TGI: > 51.5 µM
NCI-H226 lung
  TGI: 21.3 µM
786-0 renal
  TGI: > 20.4 µM
UACC-257 melanoma
  TGI: 6.63 µM
SF-268 CNS
  TGI: > 35.6 µM
SNB-75 CNS
  TGI: 5.17 µM
ACHN renal
  TGI: 4.17 µM

## N#Cc1cc(F)cc(Oc2ccc(S(=O)(=O)C(F)F)c3c2CC(F)(F)[C@H]3O)c1
SK-MEL-2 melanoma
  GI50: 16.4 µM
  TGI: 59.8 µM
OVCAR-8 ovarian
  GI50: 33.8 µM
  TGI: > 100 µM
HS 578T breast
  GI50: 28.5 µM
  TGI: > 100 µM
SN12C renal
  GI50: 28.7 µM
  TGI: > 100 µM
MDA-MB-231 breast
  GI50: 22.3 µM
  TGI: 73.2 µM
OVCAR-5 ovarian
  GI50: 51 µM
  TGI: > 100 µM
KM12 colon
  GI50: 44.8 µM
  TGI: > 100 µM
BT-549 breast
  GI50: 22.3 µM
  TGI: > 100 µM
UO-31 renal
  GI50: 15.1 µM
  TGI: 69.9 µM
NCI/ADR-RES ovarian
  GI50: 26.4 µM
  TGI: > 100 µM
A498 renal
  GI50: 20.6 µM
  TGI: 73.6 µM
DU-145 prostate
  GI50: 36.1 µM
  TGI: > 100 µM
SW-620 colon
  GI50: 55.3 µM
  TGI: > 100 µM
SK-MEL-5 melanoma
  GI50: 17.6 µM
  TGI: 34.7 µM
SK-OV-3 ovarian
  GI50: 31.4 µM
  TGI: > 100 µM
SF-539 CNS
  GI50: 37 µM
  TGI: > 100 µM
OVCAR-4 ovarian
  GI50: 19 µM
  TGI: 91.7 µM
HL-60(TB) leukemia
  GI50: 27.4 µM
  TGI: 87.2 µM
NCI-H23 lung
  GI50: 27.6 µM
  TGI: > 100 µM
UACC-62 melanoma
  GI50: 21.7 µM
  TGI: > 100 µM
A549 NSCLC
  GI50: 27.9 µM
  TGI: > 100 µM
MDA-MB-435
  GI50: 37.7 µM
  TGI: > 100 µM
SNB-19 CNS
  GI50: 37.2 µM
  TGI: > 100 µM
TK-10 renal
  GI50: 28.4 µM
  TGI: 82.4 µM
PC-3 prostate
  GI50: 23.9 µM
  TGI: > 100 µM
NCI-H460 lung
  GI50: 42.1 µM
  TGI: > 100 µM
SR leukemia
  GI50: 36 µM
  TGI: > 100 µM
RPMI-8226 leukemia
  GI50: 19.2 µM
  TGI: 96.4 µM
LOX IMVI melanoma
  GI50: 35 µM
  TGI: > 100 µM
T-47D breast
  GI50: 16.3 µM
  TGI: > 100 µM
MALME-3M melanoma
  GI50: 28.5 µM
  TGI: > 100 µM
K-562 leukemia
  GI50: 27.1 µM
  TGI: > 100 µM
IGROV1 ovarian
  GI50: 37.4 µM
  TGI: > 100 µM
OVCAR-3 ovarian
  GI50: 36.5 µM
  TGI: > 100 µM
HCT-116 colon
  GI50: 25.2 µM
  TGI: > 100 µM
SK-MEL-28 melanoma
  GI50: 36.1 µM
  TGI: > 100 µM
HCT-15 colon
  GI50: 29.2 µM
  TGI: > 100 µM
MOLT-4 leukemia
  GI50: 27.6 µM
  TGI: > 100 µM
NCI-H522 lung
  GI50: 19.1 µM
  TGI: 88.7 µM
HCC-2998 colon
  GI50: 48 µM
  TGI: > 100 µM
SF-295 CNS
  GI50: 24.9 µM
  TGI: 79.2 µM
EKVX NSCLC
  GI50: 25.3 µM
  TGI: > 100 µM
CAKI-1 renal
  GI50: 27.7 µM
  TGI: > 100 µM
MCF7 breast
  GI50: 25.7 µM
  TGI: > 100 µM
CCRF-CEM leukemia
  GI50: 22.9 µM
  TGI: > 100 µM
RXF 393 renal
  GI50: 21.5 µM
  TGI: > 100 µM
U251 CNS
  GI50: 29.8 µM
  TGI: > 100 µM
HT29 colon
  GI50: 39.3 µM
  TGI: > 100 µM
M14 melanoma
  GI50: 30.1 µM
  TGI: > 100 µM
HOP-92 NSCLC
  GI50: 16 µM
  TGI: 46.5 µM
COLO 205 colon
  GI50: 25.6 µM
  TGI: 63.1 µM
HOP-62 NSCLC
  GI50: 51.1 µM
  TGI: > 100 µM
NCI-H226 lung
  GI50: 31.3 µM
  TGI: > 100 µM
UACC-257 melanoma
  GI50: 24.6 µM
  TGI: 79.1 µM
SF-268 CNS
  GI50: 35.4 µM
  TGI: > 100 µM
SNB-75 CNS
  GI50: 12.6 µM
  TGI: 67.3 µM
ACHN renal
  GI50: 30.4 µM
  TGI: > 100 µM

## COC1=C(OC)C(=O)C(Cc2c(Cl)nc3sccn23)=C(C)C1=O
SK-MEL-2 melanoma
  TGI: 38.7 µM
OVCAR-8 ovarian
  TGI: 26.2 µM
HS 578T breast
  TGI: 50.3 µM
SN12C renal
  TGI: 26.2 µM
MDA-MB-231 breast
  TGI: 8.28 µM
OVCAR-5 ovarian
  TGI: 31.7 µM
KM12 colon
  TGI: 22.3 µM
BT-549 breast
  TGI: 27.5 µM
UO-31 renal
  TGI: 23.6 µM
NCI/ADR-RES ovarian
  TGI: 20 µM
A498 renal
  TGI: 28.5 µM
DU-145 prostate
  TGI: 27.2 µM
SW-620 colon
  TGI: 30.4 µM
SK-MEL-5 melanoma
  TGI: 17.5 µM
SK-OV-3 ovarian
  TGI: 21.7 µM
SF-539 CNS
  TGI: 25 µM
OVCAR-4 ovarian
  TGI: 18.8 µM
HL-60(TB) leukemia
  TGI: 6.98 µM
NCI-H23 lung
  TGI: 29.2 µM
UACC-62 melanoma
  TGI: 20.6 µM
A549 NSCLC
  TGI: 25.1 µM
MDA-MB-435
  TGI: 21.8 µM
SNB-19 CNS
  TGI: 28.1 µM
TK-10 renal
  TGI: 26.6 µM
PC-3 prostate
  TGI: 28.5 µM
NCI-H460 lung
  TGI: 25.4 µM
SR leukemia
  TGI: 18.5 µM
RPMI-8226 leukemia
  TGI: 15.7 µM
LOX IMVI melanoma
  TGI: 10.4 µM
T-47D breast
  TGI: 17.8 µM
MALME-3M melanoma
  TGI: 13.7 µM
K-562 leukemia
  TGI: 34.1 µM
IGROV1 ovarian
  TGI: 29.1 µM
OVCAR-3 ovarian
  TGI: 25.8 µM
HCT-116 colon
  TGI: 41.3 µM
SK-MEL-28 melanoma
  TGI: 24.4 µM
HCT-15 colon
  TGI: 27.2 µM
MOLT-4 leukemia
  TGI: 4.17 µM
NCI-H522 lung
  TGI: 20.2 µM
HCC-2998 colon
  TGI: 32.1 µM
SF-295 CNS
  TGI: 25.4 µM
EKVX NSCLC
  TGI: 20.4 µM
CAKI-1 renal
  TGI: 45 µM
MCF7 breast
  TGI: 26.8 µM
CCRF-CEM leukemia
  TGI: 5.44 µM
RXF 393 renal
  TGI: 31.1 µM
U251 CNS
  TGI: 25.1 µM
HT29 colon
  TGI: 27.7 µM
M14 melanoma
  TGI: 24.3 µM
COLO 205 colon
  TGI: 29.2 µM
HOP-62 NSCLC
  TGI: 31.1 µM
786-0 renal
  TGI: 33.2 µM
UACC-257 melanoma
  TGI: 16.1 µM
SF-268 CNS
  TGI: 30.4 µM
ACHN renal
  TGI: 27.8 µM
